{"source": "ChEMBL document CHEMBL1134113", "about": "“Selective inhibition of Src SH2 by a novel thiol-targeting tricarbonyl-modified inhibitor and mechanistic analysis by (1)H/(13)C NMR spectroscopy” (Bioorg Med Chem Lett, 2001)", "key": {"[1]": {"biological_target": "T1, Proto-oncogene tyrosine-protein kinase Src (Homo sapiens, UniProt P12931)", "experiment": "Binding affinity for wild type Src SH2 domain using BIAcore binding assay"}, "[2]": {"biological_target": "T1, Proto-oncogene tyrosine-protein kinase Src", "experiment": "Selectivity for Src SH2 domain compared to Cys188Ala Src SH2 domain mutants"}, "[3]": {"biological_target": "Proto-oncogene tyrosine-protein kinase Src (Homo sapiens, UniProt P12931, C188A)", "experiment": "(§1) Binding affinity for Cys188Ala Src SH2 domain mutant using BIAcore binding assay"}, "[4]": {"tested_on": "Proto-oncogene tyrosine-protein kinase Src (Homo sapiens), P12931 [C188A]", "experiment": "as §1", "settings": "concentration not given here"}}, "note": "Calls of active or inactive are those of the source. The rule behind the calls is not given here.", "data": [{"compound": "COC(=O)C(O)(O)C(=O)c1ccccc1", "values": [{"measurement": "IC50", "setting": "[1]", "value": 100, "unit": "µM"}, {"measurement": "Selectivity", "setting": "[2]", "value": "Active"}, {"measurement": "IC50", "setting": "[3]", "value": "> 1000", "unit": "µM"}]}, {"compound": "CC[C@H](C)[C@H](NC(=O)[C@H](CCC(=O)O)NC(=O)[C@H](CCC(=O)O)NC(=O)C(Cc1ccc(C(=O)C(=O)C(=O)OC)cc1)NC(C)=O)C(N)=O", "note": "(stereo not given in full)", "values": [{"measurement": "IC50", "setting": "[1]", "value": 2.3, "unit": "µM"}, {"measurement": "Selectivity", "setting": "[2]", "value": "Active"}, {"measurement": "IC50", "setting": "[3]", "value": "> 1000", "unit": "µM"}]}, {"compound": "CC[C@H](C)[C@H](NC(=O)[C@H](CCC(=O)O)NC(=O)[C@H](CCC(=O)O)NC(=O)[C@@H](N)Cc1ccc(OP(=O)(O)O)cc1)C(=O)O", "values": [{"measurement": "IC50", "setting": "[1]", "value": 1.2, "unit": "µM"}, {"measurement": "IC50", "setting": "[3]", "value": 1.33, "unit": "µM"}]}, {"compound": "CC[C@H](C)[C@H](NC(=O)[C@H](CCC(=O)O)NC(=O)[C@H](CCC(=O)O)NC(=O)CCc1cccc(C(=O)O)c1)C(N)=O", "values": [{"measurement": "inhibition", "setting": "[4]", "value": 15, "unit": "%"}, {"measurement": "IC50", "setting": "[1]", "value": 250, "unit": "µM"}, {"measurement": "Selectivity", "setting": "[2]", "value": "inactive"}]}, {"compound": "CC[C@H](C)[C@H](NC(=O)[C@H](CCC(=O)O)NC(=O)[C@H](CCC(=O)O)NC(=O)CCc1cccc(C(=O)C(O)(O)C(=O)OC)c1)C(N)=O", "values": [{"measurement": "IC50", "setting": "[1]", "value": 18, "unit": "µM"}, {"measurement": "Selectivity", "setting": "[2]", "value": "Active"}, {"measurement": "IC50", "setting": "[3]", "value": "> 1000", "unit": "µM"}]}, {"compound": "COC(=O)C(=O)C(=O)c1ccc(CC(NC(C)=O)C(=O)N[C@@H](CCC(=O)O)C(=O)N[C@H](C(=O)N[C@@H](CC(C)C)C(N)=O)[C@@H](C)O)cc1", "note": "(stereo not given in full)", "values": [{"measurement": "IC50", "setting": "[1]", "value": 8.6, "unit": "µM"}, {"measurement": "Selectivity", "setting": "[2]", "value": "Active"}, {"measurement": "IC50", "setting": "[3]", "value": "> 1000", "unit": "µM"}]}, {"compound": "CC[C@H](C)[C@H](NC(=O)[C@H](CCC(=O)O)NC(=O)[C@H](CCC(=O)O)NC(=O)CCc1ccc(C(=O)C(O)(O)C(=O)OC)cc1)C(N)=O", "values": [{"measurement": "IC50", "setting": "[1]", "value": 20, "unit": "µM"}, {"measurement": "Selectivity", "setting": "[2]", "value": "Active"}, {"measurement": "IC50", "setting": "[3]", "value": "> 1000", "unit": "µM"}]}]}
